Results from patent US20260306526A1, “COMBINATION THERAPY FOR BACTERIAL INFECTIONS COMPRISING ZINC-CHELATOR, BETA-LACTAM ANTIBIOTIC AND SERINE BETA-LACTAMASE INHIBITOR” (priority 2023, published 2026).

How the values were obtained:
[1] = tested on: MBLs; details: cited from earlier work
[2] = tested on: NDM; details: mouse models; relatively high doses required to reverse carbapenem resistance; cited from earlier work
[3] = tested on: K. pneumoniae K66-45 (NDM-1); assay: MIC determination of meropenem with zinc chelator at varying zinc concentrations in the medium (Example 31); assay type: cell-based, Klebsiella pneumoniae
Description: An experiment was conducted to determine the Minimal Inhibitory Concentration (MIC) of meropenem (MEM) in combination with the zinc chelator according to Example 26 of WO 2018/033719 at varying concentrations of zinc in the medium. The medium was a Mueller Hinton broth from Thermo Fischer. The zinc content was measured as 5.6 μM using ICP-MS. The concentration of zinc in the plasma of healthy animals has been determined to be close to this value. In infectious tissue, the zinc concentration is below the limit of detection (see, for example Bilinskaya et al., Am. Soc. For Microbiology (2020), 58, pages 1-8). Zinc sulfate was then added to this broth to obtain three further concentrations: 15.6 μM, 25.6 μM and 35.6 μM of zinc, keeping all other parameters constant.
As a model bacterial strain for this experiment, the MIC of MEM vs. K. pneumoniae K66-45 (NDM-1) was then determined in broth containing the four concentrations of zinc following the protocol given in Example 1. The EUCAST MIC value for MEM alone (EUCAST: standardization organization for MIC values of antibiotics) is 4-8 μM, meaning that if a bacterial strain is inhibited at lower concentrations than the MIC value, the bacterial strain is sensitive(S) to MEM. Correspondingly, if the bacterial strain is not inhibited at MIC or lower, the strain is resistant (R). If the inhibition is within the MIC range 4-8 μM, the resistance is intermediate (I).

[4] = tested on: clinically isolated gram-negative bacteria with MBL as a resistance mechanism; details: cited from earlier work
[5] = tested on: MBL-producers; details: cited from earlier work
[6] = tested on: MBL class IMP; details: cited from earlier work

O=C(O)C[C@@H]1CC[C@H](NC(=O)Cc2cccs2)B(O)O1 [vaborbactam]
inhibitory activity against MBLs [1]: none of these β-lactamase inhibitors possess inhibitory activity against MBLs

N[C@H](CN[C@H](CN[C@@H](CC(=O)O)C(=O)O)C(=O)O)C(=O)O [aspergillomarasmine A]
in vivo activity [2]: in vivo activity in mouse models

C[C@@H](O)[C@H]1C(=O)N2C(C(=O)O)=C(S[C@@H]3CN[C@H](C(=O)N(C)C)C3)[C@H](C)[C@H]12 [Meropenem, meropenem, reference compound]
EUCAST MIC class for MEM alone ([3]; zinc concentration 5.6 μM): S (if a bacterial strain is inhibited at lower concentrations than the MIC value, the bacterial strain is sensitive(S) to MEM)
EUCAST MIC class for MEM alone ([3]; zinc concentration 35.6 μM): R (if the bacterial strain is not inhibited at MIC or lower, the strain is resistant (R))
sensitivity to meropenem alone ([4]; meropenem used alone, many clinical isolates with MBL): resistant to the antibiotic
effect of MEM in combination with the compound of Example 26 of WO 2018/033719 ([4]; same strains, sensitivity reinstated): inhibitory effect

NC(=O)[C@@H]1CC[C@@H]2CN1C(=O)N2OS(=O)(=O)O [Avibactam, avibactam]
inhibitory activity against MBLs [1]: none of these β-lactamase inhibitors possess inhibitory activity against MBLs

NCCN[C@H]1CC[C@H](CC(=O)N[C@H]2Cc3cccc(C(=O)O)c3OB2O)CC1 [taniborbactam]
activity in combination with cefepime [5]: potent activity
effect in combination with cefepime [6]: no effect

CC1=C[C@@H]2CN(C(=O)N2OS(=O)(=O)O)[C@@H]1C(N)=O [ETX2514]
inhibitory activity against MBLs [1]: none of these β-lactamase inhibitors possess inhibitory activity against MBLs
